Source: patent US20240248101A1 (The United States of America, as represented by the …, priority 2021, published 2024)
Values joined by “and” are separate entries in the source; they are usually repeats but may differ in a detail not shown here. Identical values can stand only once.

Columns and labels:
[1] = Plasma and urine vitamin C in gulo-/- mice given vitamin C in drinking water; assay type: in vivo, mouse; conditions: gulo-/- mice of both sexes, vitamin C 0 to 5000 mg/L in drinking water
Experimental: Values represent means+/−SDs. All mice were maintained at each dose for one week before blood and urine sampling.
Animal experiments were approved by the Animal Care and Use Committee NIDDK, NIH, and were conducted in accordance with NIH guidelines. Mice were 10-14-week-old males and females with free access to food and water and were maintained on a regular chow diet (NIH-07) without detectable ascorbate (detection limit 10 nM). Mice type were gulo^−/− and SVCT1^−/−. […] To maintain the mice, vitamin C was provided via drinking water, which was changed daily.
Plasma and RBCs were from mouse whole blood as described. Urine was collected at the same time as the blood by gentle abdominal pressure.
Blood and urine samples were collected on ice and processed promptly. All samples were stored at −80 C and assayed together by HPLC as previously described.

[2] = Vitamin C renal leak study in diabetic cohort, nondiabetic controls and healthy subgroup (matched fasting plasma and 1 h urine); assay type: in vivo, human; conditions: for Plasma Vitamin C Concentration (mean): fasting
Experimental: Vitamin C in plasma and urine was measured using coulometric electrochemical detection with high performance liquid chromatography.
Study design: This was a non-randomized cross-sectional cohort outpatient study aimed at investigating the prevalence and clinical characteristics of vitamin C renal leak in a cohort of individuals with diabetes and non-diabetic controls. The protocol was approved by the Institutional Review Boards of NIDDK, NIH.
Participants and Recruitment: The study included a cohort of diabetic and non-diabetic individuals aged 18-65, without known acute or chronic medical conditions other than complications of diabetes mellitus or metabolic syndrome. Exclusion criteria included presence of an acute or chronic illness, alcohol abuse or tobacco use and pregnancy.
Subjects were also instructed to avoid food or drinks (other than water and medications) after midnight, prior to study sampling day. On morning of study sampling, subjects were admitted to the NIH CRC's metabolic unit as outpatients. They were instructed to empty their bladder. […] Subjects were subsequently provided with a meal and discharged home.
Study Groups and Comparators for Analyses: Three groups of participants who met the inclusion and exclusion criteria were used for data analyses: diabetic cohort, nondiabetic control group and healthy subgroup. The diabetic cohort was comprised of men and women with type 1 or type 2 diabetes. The nondiabetic control group was made up of individuals without diabetes and were not taking any chronic medications. To investigate unknown factors associated with renal leak, related and unrelated to diabetes, the study exclusion criteria was non-restrictive to recruit a broad sampling of the population. Thus, the nondiabetic control group included asymptomatic subjects with abnormal laboratory values which not determined to be clinically significant during the screening evaluation. However, inclusion of individuals with abnormal laboratory values in the non-diabetic control group could confound study findings. To address this concern, a post-hoc healthy subgroup of the nondiabetic control group without abnormal laboratory findings was identified. Primary comparative analysis was between the diabetic group vs nondiabetic control group. The diabetic group was secondarily compared with the healthy subgroup to assess for discordant findings.
This binary criterion is a qualitative measure indicating the presence or absence of a renal leak in a subject. The prevalence of renal leak was calculated as the proportion of leakers in each population cohort.
FeVC is a quantitative measure that describes the degree and magnitude of a renal leak. The formula for calculating FeVC is shown below: […]
Sample collection and vitamin C assay: Urine and plasma vitamin C were analyzed by HPLC with coulometric electrochemical detection. Other blood and urine chemistry measurements were performed, using standard laboratory methods, by the department of laboratory medicine Clinical Laboratory Improvement Amendments (CLIA) identification number: 21D0665373, Clinical Research Center, National Institutes of Health.

[3] = Vitamin C renal leak study in men with Fabry disease and healthy male controls (matched fasting plasma and 1 h urine); assay type: in vivo, human; conditions: for median fractional excretion of vitamin C (FeVC): all subjects
Text: Study design: This was a non-randomized cross-sectional cohort study aimed at investigating the prevalence and clinical characteristics of vitamin C renal leak in men with Fabry disease and healthy male controls. The protocols were approved by the Institutional Review Boards of NINDS and NIDDK, NIH.
Participants: Men with Fabry disease who were actively participating in NIH protocols evaluating the open label use of enzyme replacement therapy (ERT) in Fabry disease (95-N-0121, 00-N-0185 and 02-N-0220), ClinicalTrials.gov Identifiers: NCT00001491 and NCT00068107) were recruited. The male predominance in Fabry disease is based on the X-linked inheritance pattern. Accordingly, healthy men aged 18-58 were recruited on a rolling basis as controls for the Fabry cohort, under NIH protocol 04-DK-0021 (arm 3). Exclusion criteria included acute or chronic illness, alcohol abuse or tobacco use.
Matched urine and plasma vitamin C measurements: Following an overnight fast, on the morning of study, subjects were instructed to empty their bladder. […] Following the initial spot urine collection, subjects were hospitalized for another 24 hours. They consumed a hospital diet free of supplements or foods items with no or low vitamin C content. On morning of day 2, collection of all voided urine for 24 hours (termed 24 h urine) was obtained and subjects were discharged home.
Primary endpoint was the prevalence of vitamin C renal leak in the Fabry's cohort compared with healthy controls. Renal leak status (leak vs no leak) was determined using criteria described in depletion-repletion studies above. […] To address this limitation, renal leak was also expressed as fractional excretion of vitamin C (FeVC) defined as follows: […]
Following an overnight fast, on the morning of study, subjects were instructed to empty their bladder. […] Subjects could watch TV, read, take naps, or rest in any other way they choose. […]

[4] = Vitamin C depletion-repletion pharmacokinetic study: renal threshold and minimal elimination threshold (PBPK and PCF modelling); assay type: in vivo, human; conditions: for vitamin C renal threshold, Population Curve Fitting (PCF): population estimate
Experimental: Renal threshold was estimated using physiology-based pharmacokinetics modeling. […] Mice knockout models were used for proof-of-concept studies. Vitamin C was measured using coulometric electrochemical detection with high performance liquid chromatography.
Pharmacokinetics components of depletion-repletion study design have been described previously (see supplementary methods). The protocol was approved by the Institutional Review Board, National Institutes of Diabetes and Digestive and Kidney diseases (NIDDK), National Institutes of Health (NIH).
Participants, Interventions: Healthy men and women aged 18 to 35 years without any acute or chronic medical conditions. Details on eligibility and study interventions are described in supplementary methods.
Full details regarding studying outcomes and analyses are provided in supplementary methods. […] Each subject had 5-7 oral and intravenous pharmacokinetic studies over a 13-fold or greater dose range. Data from the NIH depletion study in men and women were used to estimate the vitamin C renal threshold by two different methods: physiology-based pharmacokinetics modeling (PBPK), and population curve fitting with empirical functions (PCF). […] Based on data from healthy men, this model facilitated description of pharmacokinetics-time profiles of vitamin C in plasma, urine, and tissues simultaneously. Goodness of fit analyses support the use of this model to data from healthy women. For population curve fitting (PCF), plasma and urine values were analyzed using nonlinear mixed-effect modeling. PCF fits empirical functions to data from all subjects of each sex to estimate the renal threshold for that population of men and women. Using PBPK analyses, minimal elimination threshold (MET) was defined as that plasma concentration 2 standard deviations below the mean renal threshold for men and for women based on guidelines for estimating dietary reference intakes. […] (see supplementary methods).
Because urine samples collected at variable intervals were not synchronized with plasma samples, the time at which vitamin C first appears in the urine or when vitamin C urinary elimination became zero could not be determined from raw data alone. […] Using the data from the NIH depletion repletion study, vitamin C renal threshold was estimated by two different methods: Physiology-Based Pharmacokinetics model (PBPK) and population curve fitting (PCF).
Goodness of fit analysis support the use of the pharmacokinetics model to data collected from 15 normal women. […] When the amount of filtered vitamin C exceeds renal tubular reabsorptive capacity, vitamin C appears in the urine. The point at which renal threshold is reached (when filtration and reabsorption are in equilibrium) can be represented as
The Cplasma that fulfill the above equation is the plasma concentration threshold (renal threshold). At which time, the rate of vitamin C dispense into the tubule equals zero. The equation 2 can be rearranged as
Different non-parametric empirical functions were explored to best describe the combined urine data versus plasma vitamin C value of all subjects. After the structure function (model) was selected using goodness-of-fit assessments, plasma and urine data analyses were finalized using Nonlinear Mixed-Effect (MLME) modeling for population fit with S-Plus for Windows (version 8, Insightful Corp. Seattle, WA) to estimate the parameters account for inter-subject variabilities.
A Michealis-Menten equation (equation 4) was selected and fitted to data to estimate the parameters Vm and KM (maximum rate and Michaelis constant, respectively).
Initial estimate of Vm and KM were obtained by inspecting data plots. Goodness-of-fit was checked by visually inspecting the distribution of Standardized Residuals. If the goodness of fit was not acceptable, the initial parameters (Vm and KM) were changed and the resulting plot inspected again for distribution of residuals. […]

SMILES: O=C1O[C@H]([C@@H](O)CO)C(O)=C1O [vitamin C]
- plasma vitamin C concentration below which no vitamin C was found in urine (renal threshold) [1]: 55 µM
- Median FeVC ([2]; Diabetic Cohort, All Subjects): 0.00032
- Median FeVC ([2]; Diabetic Cohort, Plasma Vit C < MET): 0.00015
- Median FeVC ([2]; Diabetic Cohort, Plasma Vit C ≥ MET): 0.0012 and 0.00122
- Plasma Vitamin C Concentration (mean) ([2]; Diabetic Cohort, table part adjusted for sex/gender): 40.9 µM
- Plasma Vitamin C Concentration (mean) ([2]; Diabetic Cohort, un-adjusted for sex/gender): 40.9 µM
- Median FeVC ([2]; Healthy Subgroup, All Subjects): 0.00046
- Median FeVC ([2]; Healthy Subgroup, Plasma Vit C < MET): 0
- Median FeVC ([2]; Healthy Subgroup, Plasma Vit C ≥ MET): 0.00046
- Plasma Vitamin C Concentration (mean) ([2]; Healthy Subgroup, table part adjusted for sex/gender): 57.1 µM
- Plasma Vitamin C Concentration (mean) ([2]; Healthy Subgroup, un-adjusted for sex/gender): 57.1 µM
- Median FeVC ([2]; Non-Diabetic Control, All Subjects): 0.00044
- Median FeVC ([2]; Non-Diabetic Control, Plasma Vit C < MET): 0.0000
- Median FeVC ([2]; Non-Diabetic Control, Plasma Vit C ≥ MET): 0.0010
- Plasma Vitamin C Concentration (mean) ([2]; Non-Diabetic Control, table part adjusted for sex/gender): 53.1 µM
- Plasma Vitamin C Concentration (mean) ([2]; Non-Diabetic Control, un-adjusted for sex/gender): 53.1 µM
- mean plasma vitamin C concentration ([3]; Fabry cohort and healthy controls after 3-week low vitamin C diet, order of cohorts not stated): 38.9 µM and 36.5 µM
- median fractional excretion of vitamin C (FeVC) ([3]; healthy male controls): 0
- median fractional excretion of vitamin C (FeVC) ([3]; men with Fabry disease): 0.018
- Minimal Elimination Threshold (MET), 2SD below mean renal threshold using PBPK ([4]; healthy men): 38.1 µM
- vitamin C renal threshold, Pharmacokinetic Modeling (PBPK), individual estimates ([4]; healthy men, individual subjects M1-M7, plasma concentration at which vitamin C first appears in urine): 52 μM and 51 μM and 40 μM and 56 μM and 45 μM (2×) and 50 μM
- vitamin C renal threshold, PBPK, Mean (SD) ([4]; healthy men, n = 7): 48.5(5.2) μM
- vitamin C renal threshold, PBPK, Mean (SD) ([4]; healthy men, n = 7, listed as Vitamin C): 48.5 μM and 48.5 (5.2) μM
- vitamin C renal threshold, Population Curve Fitting (PCF) ([4]; healthy men): 48.3 µM and 48.28 µM
- vitamin C renal threshold, Population Curve Fitting (PCF) ([4]; healthy men, listed as Vitamin C): 48.3 µM
- Minimal Elimination Threshold (MET), 2SD below mean renal threshold using PBPK ([4]; healthy women): 43.2 µM
- vitamin C renal threshold, Pharmacokinetic Modeling (PBPK), individual estimates ([4]; healthy women, individual subjects W1-W10): 54 μM (3×) and 67 μM and 57 μM and 64 μM and 63 μM and 45 μM and 70 μM and 55 μM
- vitamin C renal threshold, PBPK, Mean (SD) ([4]; healthy women, n = 10): 58.3(7.5) μM
- vitamin C renal threshold, PBPK, Mean (SD) ([4]; healthy women, n = 10, listed as Vitamin C): 58.3 μM and 58.3 (7.5) μM
- vitamin C renal threshold, Population Curve Fitting (PCF) ([4]; healthy women): 60.4 µM and 60.39 µM
- vitamin C renal threshold, Population Curve Fitting (PCF) ([4]; healthy women, listed as Vitamin C): 60.4 µM
